Experimental data as given in patent US20260258003A1, “SLACK-ACTIVATING COMPOUNDS AND THEIR MEDICAL USE” (Johann Wolfgang Goethe-Universität Frankfurt am Main, priority 2023, published 2026).
Like-named read-outs stand apart in the source and are kept apart here.

How the values were obtained:
human Slack = biological target: T1, human Slack (Homo sapiens, UniProt Q5JUK3); assay: FluxOR potassium ion channel assay in HEK-Slack cells; assay type: cell-based; conditions: Na+ free buffer with 2 mM Ca2+, 2 mM Mg2+, 0.03% DMSO; for Emax: read-out: FluxOR assay EMAX (% relative to Loxapine)
T1 construct: host or cells: HEK293
T1 sequence (Q5JUK3 1-1230): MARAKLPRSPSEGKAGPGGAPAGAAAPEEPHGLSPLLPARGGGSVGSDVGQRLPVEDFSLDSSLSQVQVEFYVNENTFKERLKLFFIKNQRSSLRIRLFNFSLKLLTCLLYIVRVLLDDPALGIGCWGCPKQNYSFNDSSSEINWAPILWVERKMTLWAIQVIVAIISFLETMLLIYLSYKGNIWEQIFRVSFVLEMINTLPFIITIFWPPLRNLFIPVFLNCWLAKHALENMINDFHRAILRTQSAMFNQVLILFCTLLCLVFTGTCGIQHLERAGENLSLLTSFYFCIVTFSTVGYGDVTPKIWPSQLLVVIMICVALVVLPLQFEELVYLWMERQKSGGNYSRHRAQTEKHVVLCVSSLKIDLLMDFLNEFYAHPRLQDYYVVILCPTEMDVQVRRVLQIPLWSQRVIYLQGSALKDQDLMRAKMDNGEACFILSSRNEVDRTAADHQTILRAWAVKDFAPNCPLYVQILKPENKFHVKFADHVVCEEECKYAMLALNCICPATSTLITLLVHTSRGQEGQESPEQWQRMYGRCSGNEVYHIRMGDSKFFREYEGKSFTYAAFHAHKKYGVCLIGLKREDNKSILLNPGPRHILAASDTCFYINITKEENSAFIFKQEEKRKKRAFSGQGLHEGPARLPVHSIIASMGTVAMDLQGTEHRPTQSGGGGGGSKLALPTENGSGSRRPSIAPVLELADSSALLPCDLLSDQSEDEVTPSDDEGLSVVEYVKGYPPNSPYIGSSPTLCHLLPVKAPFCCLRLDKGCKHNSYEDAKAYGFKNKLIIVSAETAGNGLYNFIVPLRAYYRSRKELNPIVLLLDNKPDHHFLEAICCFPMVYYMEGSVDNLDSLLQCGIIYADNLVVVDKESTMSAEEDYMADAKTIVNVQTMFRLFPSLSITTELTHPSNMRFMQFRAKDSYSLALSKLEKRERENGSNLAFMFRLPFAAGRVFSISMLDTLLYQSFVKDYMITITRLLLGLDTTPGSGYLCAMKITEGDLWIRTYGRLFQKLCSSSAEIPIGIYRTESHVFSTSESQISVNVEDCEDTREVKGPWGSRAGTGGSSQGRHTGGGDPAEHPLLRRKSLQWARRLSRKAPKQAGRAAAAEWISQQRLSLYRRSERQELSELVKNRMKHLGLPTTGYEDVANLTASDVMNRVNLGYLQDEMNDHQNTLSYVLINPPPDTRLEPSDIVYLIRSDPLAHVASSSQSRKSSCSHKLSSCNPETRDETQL
Procedure: For that purpose, cultured HEK293 cells stably expressing human Slack (herein referred to as HEK-Slack cells) were incubated with compounds in a Na^+ free buffer to prevent compound-independent Slack activation by monovalent cations^7,19.
In detail, in these experiments, the Slack-activating efficacy and potency of the novel compounds was determined using a commercial FluxOR™ Potassium Ion Channel Assay (Invitrogen). HEK293 cells stably expressing human Slack (herein referred to as HEK-Slack cells) were plated at a density of 50,000 cells per well of a poly-D-lysine coated (75 μg/mL, Sigma Aldrich) 96-well, black-walled microplate with clear bottom (Greiner Bio-One) in DMEM containing 10% FBS and 1% penicillin/streptomycin 24 hours prior to assaying.
On the experiment day, cells were loaded with FluxOR™ dye according to the manufacturer's protocol. A Na^+-free assay buffer containing 140 mM choline chloride, 5 mM KCl, 2 mM CaCl2), 2 mM MgSO4, 10 mM HEPES, 5.55 mM glucose, adjusted to pH 7.4 with KOH, was used. To reduce background fluorescence all assay components were complemented by 10% BackDrop™ Background Suppressor (Invitrogen). […]
After washing steps, cells were incubated with compounds for 30 min at 37° C. All compounds were prepared as a 33.3 mM DMSO stock and diluted at the experimental day to a final concentration of 100, 50, 25, 12.5, 6.25, and 3.125 μM in assay buffer containing […] DMSO. […] After stimulation with Tl2SO4 solution, the fluorescence was measured over 100 s (excitation 485 nm, emission 525 nm) using an Infinite M200 Microplate Reader (Tecan). Assays run in triplicate and the ratio to baseline fluorescence was calculated for all time points. Dose-response curves comprising six concentrations were performed in triplets using fluorescence/fluorescenceBaseline ratios at the 100th second.

[1] = biological target: T2, human ether-à-go-go (hERG) potassium channel (Homo sapiens, UniProt Q12809); assay: SafetyScreen44 binding; conditions: 10 μM
T2 construct: Eurofins SafetyScreen44
Procedure: (§1) Compound enzyme inhibition effect was calculated as a % inhibition of control enzyme activity. […] Measurements were performed in duplicate.

[2] = biological target: T3, serotonin 5-HT2A receptor (Homo sapiens, UniProt P28223); assay: SafetyScreen44 binding; conditions: substantial = higher than 50%; for binding inhibition, 5-HT2A: 10 μM
T3 construct: Eurofins SafetyScreen44
Procedure: as §1

[3] = system: chloroquine-induced scratching behavior of mice; assay: Chloroquine-induced acute itch (scratching) model, systemic treatment; assay type: in vivo; conditions: for chloroquine-induced scratching behavior: WT mice, 3, 10 or 30 mg/kg i.p. 15 min prior to s.c. chloroquine
Procedure: Further studies were conducted to assess the in vivo efficacy of Compound 6 and Compound 10 in mice. In detail, experiments were performed in 8 to 16 weeks old C57BL/6N mice (Charles River, Sulzfeld, Germany) and animals with a genetic deletion of Slack (Slack^−/− mice^27) of either sex. Animals were housed on a 12 h light/dark cycle with access to food and water ad libitum. All experiments adhered to the guidelines of the International Association for the Study of Pain and to the ARRIVE (Animal Research: Reporting on In Vivo Experiments) guidelines, and were approved by and conducted in accordance with the regulations of the local Animal Welfare authorities (Regierungspräsidium Darmstadt, Germany). All behavioral studies were conducted during the light cycle of the day at room temperature (20-24° C.) by an observer blinded for the treatment of the animals and/or their genotype.
Acute itch behavior of the mice was monitored using a histamine-based, chloroquine-based and SLIGRL-based acute itch behavior model. In these models, three to four days before the experiment day, the fur on the dorsolateral aspect of the neck was shaved under brief isoflurane anesthesia. On the testing day, mice were habituated for 30 min in separate plexiglass cylinders (30 cm diameter). Compounds were dissolved in 0.9% saline containing 10% 2-hydroxypropyl-β-cyclodextrine and i.p. administered in a volume of maximal 200 μL. 15 min thereafter, the pruritogens chloroquine (200 μg), SLIGRL (100 μg) or histamine (800 μg), all dissolved in 0.9% saline (20 μL), were injected subcutaneously into the nape of the neck. Numbers of scratching bouts directed to the nape of the neck were assessed over 30 min by videotaping.

[4] = mean with 95% confidence interval, read-out: FluxOR assay EC50
[5] = mean with 95% confidence interval
[6] = systemic administration of a low dose, preliminary experiments, data not shown

T3 sequence (P28223 whole entry): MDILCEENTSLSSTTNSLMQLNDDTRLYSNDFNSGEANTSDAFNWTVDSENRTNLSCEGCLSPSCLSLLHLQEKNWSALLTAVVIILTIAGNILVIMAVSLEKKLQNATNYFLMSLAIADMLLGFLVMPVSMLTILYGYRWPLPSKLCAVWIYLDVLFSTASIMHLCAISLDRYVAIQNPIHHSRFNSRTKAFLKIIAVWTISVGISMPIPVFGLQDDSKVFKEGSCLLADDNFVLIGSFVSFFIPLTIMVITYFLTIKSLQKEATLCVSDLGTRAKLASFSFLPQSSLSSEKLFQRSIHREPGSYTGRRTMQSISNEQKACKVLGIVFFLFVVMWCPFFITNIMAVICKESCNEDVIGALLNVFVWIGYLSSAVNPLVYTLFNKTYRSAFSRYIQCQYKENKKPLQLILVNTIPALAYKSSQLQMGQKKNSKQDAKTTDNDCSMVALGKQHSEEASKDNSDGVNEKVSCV
T2 sequence (Q12809 whole entry): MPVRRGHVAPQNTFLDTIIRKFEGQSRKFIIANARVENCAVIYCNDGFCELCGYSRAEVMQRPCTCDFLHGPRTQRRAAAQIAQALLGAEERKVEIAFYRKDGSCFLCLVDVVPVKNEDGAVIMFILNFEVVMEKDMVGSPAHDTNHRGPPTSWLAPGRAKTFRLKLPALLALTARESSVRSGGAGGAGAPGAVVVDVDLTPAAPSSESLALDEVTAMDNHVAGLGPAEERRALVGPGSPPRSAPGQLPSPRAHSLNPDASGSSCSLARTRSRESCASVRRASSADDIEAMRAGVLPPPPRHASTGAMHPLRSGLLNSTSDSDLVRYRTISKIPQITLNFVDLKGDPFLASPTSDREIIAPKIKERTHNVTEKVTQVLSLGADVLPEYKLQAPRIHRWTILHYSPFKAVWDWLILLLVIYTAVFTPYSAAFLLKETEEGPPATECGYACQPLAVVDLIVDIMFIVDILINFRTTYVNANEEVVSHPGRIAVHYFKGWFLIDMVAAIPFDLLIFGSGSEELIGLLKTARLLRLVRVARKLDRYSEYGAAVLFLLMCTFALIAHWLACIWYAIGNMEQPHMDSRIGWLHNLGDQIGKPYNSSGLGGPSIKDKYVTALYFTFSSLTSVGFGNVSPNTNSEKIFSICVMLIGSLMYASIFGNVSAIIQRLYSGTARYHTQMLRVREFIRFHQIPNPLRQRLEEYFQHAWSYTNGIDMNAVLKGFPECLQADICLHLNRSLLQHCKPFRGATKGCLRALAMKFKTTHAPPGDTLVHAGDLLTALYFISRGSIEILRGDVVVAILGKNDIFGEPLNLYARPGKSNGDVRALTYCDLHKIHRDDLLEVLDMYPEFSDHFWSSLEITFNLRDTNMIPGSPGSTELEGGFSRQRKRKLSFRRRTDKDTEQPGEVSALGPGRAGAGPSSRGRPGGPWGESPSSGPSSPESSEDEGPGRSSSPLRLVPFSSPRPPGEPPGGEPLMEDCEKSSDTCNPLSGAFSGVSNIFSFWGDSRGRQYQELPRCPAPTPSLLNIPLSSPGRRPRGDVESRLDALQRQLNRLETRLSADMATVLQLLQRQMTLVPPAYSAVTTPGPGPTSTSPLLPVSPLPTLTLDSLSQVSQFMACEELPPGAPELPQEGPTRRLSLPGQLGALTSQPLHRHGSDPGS

EC50 (human Slack; [4]) | Emax (human Slack; [5]) | SMILES | binding to hERG potassium channel in the off-target screen [1] | also measured
50.9 µM | 186% | O=C(O)COCCN1CCCN(C2=Nc3ccccc3Oc3ccc(C(F)(F)F)cc32)CC1 [Compound 9, 2-(2-(4-(2-(Trifluoromethyl)dibenzo[b,f][1,4]oxazepin-11-yl)-1,4-diazepan-1-yl)ethoxy) acetic acid] |  | 
41.5 µM | 199% | CN1CCN(C2=Nc3cc(F)ccc3Oc3ccc(C(F)(F)F)cc32)CC1 [Compound 4, 8-Fluoro-11-(4-methylpiperazin-1-yl)-2-(trifluoromethyl)dibenzo[b,f][1,4]oxazepine] |  | 
26 µM | 223% | OCCN1CCN(C2=Nc3ccccc3Oc3ccc(Cl)cc32)CC1 [Compound 5, 2-(4-(2-Chlorodibenzo[b,f][1,4]oxazepin-11-yl)piperazin-1-yl) ethan-1-ol] |  | 
20.7 µM | 100% | CN1CCN(C2=Nc3ccccc3Oc3ccc(Cl)cc32)CC1 [Loxapine, 2-chloro-11-(4-methylpiperazin-1-yl)dibenzo[b,f][1,4]oxazepine, reference compound] | did not measurably bind | EC50 (human Slack; first preliminary experiments, read-out: EC50 value in the first preliminary experiments): 23.4 µM; inhibition at 10 µM [2]: > 50%; chloroquine-induced scratching behavior of wildtype mice [3, 6]: significantly alleviated; scratching behavior in Slack knockout mice [3, 6]: did not affect
22.1 µM | 120% | O=c1nc(CN2CCN(C3=Nc4ccccc4Oc4ccc(Cl)cc43)CC2)[nH][nH]1 [Compound 10, 5-((4-(2-Chlorodibenzo[b,f][1,4]oxazepin-11-yl)piperazin-1-yl)methyl)-1,2-dihydro-3H-1,2,4-triazol-3-one] | did not measurably bind | binding inhibition, 5-HT2A [2]: substantial binding inhibition; chloroquine-induced scratching behavior [3]: ameliorate the scratching behavior in a dose-dependent manner
6.3 µM | 114% | CN1CCN(C2=Nc3ccccc3Oc3ccc(C(F)(F)F)cc32)CC1 [Compound 2, 11-(4-Methylpiperazin-1-yl)-2-(trifluoromethyl)dibenzo[b,f][1,4]oxazepine] |  | 
62.5 µM | 177% | O=C(O)COCCN1CCN(C2=Nc3ccccc3Oc3ccc(C(F)(F)F)cc32)CC1 [Compound 8, 2-(2-(4-(2-(Trifluoromethyl)dibenzo[b,f][1,4]oxazepin-11-yl)piperazin-1-yl)ethoxy) acetic acid] |  | 
30 µM | 87.4% | OCCOCCN1CCN(C2=Nc3ccccc3Sc3ccc(Cl)cc32)CC1 [Compound 7, 2-(2-(4-(2-Chlorodibenzo[b,f][1,4]thiazepin-11-yl)piperazin-1-yl)ethoxy) ethan-1-ol] |  | 
3.2 µM | 63.1% | CN1CCCN(C2=Nc3ccccc3Oc3ccc(C(F)(F)F)cc32)CC1 [Compound 3, 11-(4-Methyl-1,4-diazepan-1-yl)-2-(trifluoromethyl)dibenzo[b,f][1,4]oxazepine] |  | 

SMILES | EC50 (human Slack; [4]) | Emax (human Slack; [5]) | binding to hERG potassium channel in the off-target screen [1] | also measured
O=C(O)COCCN1CCN(C2=Nc3ccccc3Oc3ccc(Cl)cc32)CC1 [Compound 6, 2-(2-(4-(2-Chlorodibenzo[b,f][1,4]oxazepin-11-yl)piperazin-1-yl)ethoxy) acetic acid] | 30.3 µM | 96.2% | did not measurably bind | binding inhibition, 5-HT2A [2]: substantial binding; chloroquine-induced scratching in Slack−/− mice ([3]; Slack−/− mice, 10 mg/kg): did not significantly alter; chloroquine-induced scratching behavior [3]: ameliorate the scratching behavior in a dose-dependent manner; antipruritic effect after pretreatment with Slack inhibitor Compound 31 ([3]; WT mice, Compound 31 30 mg/kg i.p. 5 min prior to Compound 6 30 mg/kg i.p.): partly antagonized
